Assay: xn = mol fraction of the nth substance listed
Conditions: 100 kPa, Liquid; for viscosity: Falling or rolling sphere viscometry; for speed of sound: Frequency=3 MHz, Single path-length method; for mass density: Vibrating tube method

CC#N [acetonitrile] + CN(C)C=O
Conditions | mass density, 313.15 K [kg/m3] | mass density, 318.15 K [kg/m3] | mass density, 323.15 K [kg/m3] | speed of sound, 313.15 K [m/s] | speed of sound, 318.15 K [m/s] | speed of sound, 323.15 K [m/s] | viscosity, 313.15 K [mPa·s] | viscosity, 318.15 K [mPa·s] | viscosity, 323.15 K [mPa·s]
x2 = 0 | 760.339 | 754.815 | 749.253 | 1218 | 1197.9 | 1177.8 | 0.3 | 0.29 | 0.28
x2 = 0.0989 | 786.729 | 781.363 | 776.028 | 1243 | 1223.3 | 1203.5 | 0.35 | 0.33 | 0.32
x2 = 0.1916 | 810.757 | 805.527 | 800.222 | 1262.8 | 1243.1 | 1223.4 | 0.39 | 0.37 | 0.35
x2 = 0.2925 | 829.087 | 823.852 | 818.614 | 1280.9 | 1261.3 | 1241.9 | 0.42 | 0.4 | 0.38
x2 = 0.3932 | 850.487 | 845.354 | 840.213 | 1303.2 | 1283.7 | 1264.4 | 0.46 | 0.44 | 0.42
x2 = 0.5029 | 865.854 | 860.76 | 855.738 | 1319.2 | 1299.9 | 1280.6 | 0.51 | 0.49 | 0.46
x2 = 0.6002 | 880.698 | 875.703 | 870.738 | 1337.9 | 1318.6 | 1299.4 | 0.55 | 0.52 | 0.5
x2 = 0.6931 | 893.049 | 888.143 | 883.209 | 1353.3 | 1334 | 1314.8 | 0.58 | 0.55 | 0.53
x2 = 0.7926 | 907.663 | 902.79 | 897.991 | 1371.3 | 1352.1 | 1332.9 | 0.63 | 0.59 | 0.56
x2 = 0.8996 | 918.366 | 913.57 | 908.741 | 1384.7 | 1365.5 | 1346.3 | 0.69 | 0.63 | 0.6
